Experimental data taken from patent US10844077B2, “Thiazolyl-containing compounds for treating proliferative diseases” (Dana-Farber Cancer Institute, Inc., priority 2014, dated 2020).

Key:
Assay in all cases: KINATIV assay of compounds I-3 and I-9, lysate directly labeled with ATP-biotin probe (no GF)
Assay type in all cases: cell-based
kinases in BCWM.1 cells [1] = molecular target: kinases in BCWM.1 cells (Homo sapiens, UniProt Q86SG6); conditions: NEK8; Lys2; 1 μM, 90 min; no GF
Experimental: (§1) The cells were harvested and lysed. […] Bound kinases were identified and quantitated by ACTIVX as described in Patricelli et al., Biochemistry, 2007, 46(2): 350-358. The compounds were tested in duplicates against duplicate or quadruplicate control samples.

kinases in BCWM.1 cells [2] = molecular target: kinases in BCWM.1 cells (Homo sapiens, UniProt P29597); conditions: TYK2 domain2; Activation Loop; 1 μM, 90 min; no GF
Experimental: as §1

kinases in BCWM.1 cells [3] = molecular target: kinases in BCWM.1 cells (Homo sapiens, UniProt Q9UKE5); conditions: ZC2/TNIK; Lys1; 1 μM, 90 min; no GF
Experimental: as §1

kinases in BCWM.1 cells [4] = molecular target: kinases in BCWM.1 cells (Homo sapiens, UniProt Q9BYT3); conditions: STK33; Lys2; 1 μM, 90 min; no GF
Experimental: as §1

kinases in BCWM.1 cells [5] = molecular target: kinases in BCWM.1 cells (Homo sapiens, UniProt O00329); conditions: PIK3CD; ATP; 1 μM, 90 min; no GF
Experimental: as §1

kinases in BCWM.1 cells [6] = molecular target: kinases in BCWM.1 cells (Homo sapiens, UniProt Q96S44); conditions: PRPK; ATP Loop; 1 μM, 90 min; no GF
Experimental: as §1

kinases in BCWM.1 cells [7] = molecular target: kinases in BCWM.1 cells (Homo sapiens, UniProt Q14289); conditions: PYK2; Activation Loop; 1 μM, 90 min; no GF
Experimental: as §1

kinases in BCWM.1 cells [8] = molecular target: kinases in BCWM.1 cells (Homo sapiens, UniProt P04049); conditions: RAF1; Lys2; 1 μM, 90 min; no GF
Experimental: as §1

kinases in BCWM.1 cells [9] = molecular target: kinases in BCWM.1 cells (Homo sapiens, UniProt P53350); conditions: PLK1; Lys1; 1 μM, 90 min; no GF
Experimental: as §1

kinases in BCWM.1 cells [10] = molecular target: kinases in BCWM.1 cells (Homo sapiens, UniProt Q86UE8); conditions: TLK2; Lys2; 1 μM, 90 min; no GF
Experimental: as §1

kinases in BCWM.1 cells [11] = molecular target: kinases in BCWM.1 cells (Homo sapiens, UniProt Q9Y2H1); conditions: NDR2; Lys2; 1 μM, 90 min; no GF
Experimental: as §1

kinases in BCWM.1 cells [12] = molecular target: kinases in BCWM.1 cells (Homo sapiens, UniProt Q6PHR2); conditions: ULK3; Lys2; 1 μM, 90 min; no GF
Experimental: as §1

kinases in BCWM.1 cells [13] = molecular target: kinases in BCWM.1 cells (Homo sapiens, UniProt Q9H2G2); conditions: SLK; Lys2; 1 μM, 90 min; no GF
Experimental: as §1

kinases in BCWM.1 cells [14] = molecular target: kinases in BCWM.1 cells (Homo sapiens, UniProt Q96SB4); conditions: SRPK1; Lys2; 1 μM, 90 min; no GF
Experimental: as §1

kinases in BCWM.1 cells [15] = molecular target: kinases in BCWM.1 cells (Homo sapiens, UniProt O95747); conditions: OSR1; Lys2; 1 μM, 90 min; no GF
Experimental: as §1

kinases in BCWM.1 cells [16] = molecular target: kinases in BCWM.1 cells (Homo sapiens, UniProt Q8NEB9); conditions: PIK3C3; ATP; 1 μM, 90 min; no GF
Experimental: as §1

kinases in BCWM.1 cells [17] = molecular target: kinases in BCWM.1 cells (Homo sapiens, UniProt O00750); conditions: PIK3C2B; ATP; 1 μM, 90 min; no GF
Experimental: as §1

kinases in BCWM.1 cells [18] = molecular target: kinases in BCWM.1 cells (Homo sapiens, UniProt P15735); conditions: PHKg2; Lys1; 1 μM, 90 min; no GF
Experimental: as §1

kinases in BCWM.1 cells [19] = molecular target: kinases in BCWM.1 cells (Homo sapiens, UniProt O94921)
Experimental: as §1

kinases in BCWM.1 cells [20] = molecular target: kinases in BCWM.1 cells (Homo sapiens, UniProt Q96PY6); conditions: NEK1; Lys2; 1 μM, 90 min; no GF
Experimental: as §1

kinases in BCWM.1 cells [21] = molecular target: kinases in BCWM.1 cells (Homo sapiens, UniProt O15530); conditions: PDK1; Lys1; 1 μM, 90 min; no GF
Experimental: as §1

kinases in BCWM.1 cells [22] = molecular target: kinases in BCWM.1 cells (Homo sapiens, UniProt Q8TDX7); conditions: NEK7; Lys1; 1 μM, 90 min; no GF
Experimental: as §1

kinases in BCWM.1 cells [23] = molecular target: kinases in BCWM.1 cells (Homo sapiens, UniProt Q9UBS0); conditions: p70S6Kb; Lys2; 1 μM, 90 min; no GF
Experimental: as §1

kinases in BCWM.1 cells [24] = molecular target: kinases in BCWM.1 cells (Homo sapiens, UniProt P43405); conditions: SYK; Activation Loop; 1 μM, 90 min; no GF
Experimental: as §1

kinases in BCWM.1 cells [25] = molecular target: kinases in BCWM.1 cells (Homo sapiens, UniProt P51957); conditions: NEK4; Lys2; 1 μM, 90 min; no GF
Experimental: as §1

kinases in BCWM.1 cells [26] = molecular target: kinases in BCWM.1 cells (Homo sapiens, UniProt O43318); conditions: TAK1; Lys2; 1 μM, 90 min; no GF
Experimental: as §1

kinases in BCWM.1 cells [27] = molecular target: kinases in BCWM.1 cells (Homo sapiens, UniProt Q15418); conditions: Lys2, 1 μM, 90 min, no GF
Experimental: as §1

kinases in BCWM.1 cells [28] = molecular target: kinases in BCWM.1 cells (Homo sapiens, UniProt Q96S38); conditions: RSKL1; ATP; 1 μM, 90 min; no GF
Experimental: as §1

Chain of kinases in BCWM.1 cells (Homo sapiens, UniProt P53350) (P53350 2-603 limits assumed): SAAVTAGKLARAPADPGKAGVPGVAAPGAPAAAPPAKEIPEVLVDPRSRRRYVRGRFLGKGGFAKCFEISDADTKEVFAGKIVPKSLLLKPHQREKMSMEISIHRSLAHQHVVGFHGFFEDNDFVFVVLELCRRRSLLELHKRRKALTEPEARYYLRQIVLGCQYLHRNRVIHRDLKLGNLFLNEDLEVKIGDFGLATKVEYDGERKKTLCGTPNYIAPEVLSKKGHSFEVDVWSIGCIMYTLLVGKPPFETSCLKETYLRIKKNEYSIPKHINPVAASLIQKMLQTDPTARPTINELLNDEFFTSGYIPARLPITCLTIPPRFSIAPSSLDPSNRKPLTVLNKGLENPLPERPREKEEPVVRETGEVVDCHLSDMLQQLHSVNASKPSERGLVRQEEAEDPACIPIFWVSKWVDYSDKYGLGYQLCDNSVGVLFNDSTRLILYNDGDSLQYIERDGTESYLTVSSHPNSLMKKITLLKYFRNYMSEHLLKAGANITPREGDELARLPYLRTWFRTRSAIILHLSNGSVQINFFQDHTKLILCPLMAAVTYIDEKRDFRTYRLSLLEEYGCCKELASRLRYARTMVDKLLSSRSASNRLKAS
Chain of kinases in BCWM.1 cells (Homo sapiens, UniProt O95747) (O95747 2-527 limits assumed): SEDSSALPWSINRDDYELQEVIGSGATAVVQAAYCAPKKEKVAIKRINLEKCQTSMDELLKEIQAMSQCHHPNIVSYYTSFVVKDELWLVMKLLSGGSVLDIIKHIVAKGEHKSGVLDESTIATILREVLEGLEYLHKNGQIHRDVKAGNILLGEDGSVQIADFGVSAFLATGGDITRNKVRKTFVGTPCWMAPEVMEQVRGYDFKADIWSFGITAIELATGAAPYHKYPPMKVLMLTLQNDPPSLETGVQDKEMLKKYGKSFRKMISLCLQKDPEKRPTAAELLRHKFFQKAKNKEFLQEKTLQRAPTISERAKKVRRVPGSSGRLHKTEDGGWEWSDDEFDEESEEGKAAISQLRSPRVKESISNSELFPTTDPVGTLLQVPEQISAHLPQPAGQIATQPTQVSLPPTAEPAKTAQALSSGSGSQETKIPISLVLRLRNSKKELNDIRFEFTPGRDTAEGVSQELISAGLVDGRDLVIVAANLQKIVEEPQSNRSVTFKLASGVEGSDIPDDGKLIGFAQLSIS
Chain of kinases in BCWM.1 cells (Homo sapiens, UniProt Q9Y2H1) (Q9Y2H1 2-464 limits assumed): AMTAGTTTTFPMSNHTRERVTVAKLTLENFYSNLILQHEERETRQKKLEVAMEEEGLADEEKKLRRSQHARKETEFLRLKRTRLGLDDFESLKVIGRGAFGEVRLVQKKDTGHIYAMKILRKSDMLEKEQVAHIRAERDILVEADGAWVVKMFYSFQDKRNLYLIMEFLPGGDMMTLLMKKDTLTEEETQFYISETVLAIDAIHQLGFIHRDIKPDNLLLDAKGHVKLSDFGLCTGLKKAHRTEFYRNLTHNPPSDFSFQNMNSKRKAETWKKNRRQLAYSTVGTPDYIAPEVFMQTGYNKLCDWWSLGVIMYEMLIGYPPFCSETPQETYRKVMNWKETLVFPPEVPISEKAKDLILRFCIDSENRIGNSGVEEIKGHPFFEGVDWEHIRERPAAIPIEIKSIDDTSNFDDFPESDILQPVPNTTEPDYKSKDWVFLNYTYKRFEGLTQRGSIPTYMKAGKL

SMILES	% change of MS signal compared to control sample (kinases in BCWM.1 cells [1]) [%]	% change of MS signal compared to control sample (kinases in BCWM.1 cells [2]) [%]	% change of MS signal compared to control sample (kinases in BCWM.1 cells [3]) [%]	% change of MS signal compared to control sample (kinases in BCWM.1 cells [4]) [%]	% change of MS signal compared to control sample (kinases in BCWM.1 cells [5]) [%]	% change of MS signal compared to control sample (kinases in BCWM.1 cells [6]) [%]	% change of MS signal compared to control sample (kinases in BCWM.1 cells [7]) [%]	% change of MS signal compared to control sample (kinases in BCWM.1 cells [8]) [%]	% change of MS signal compared to control sample (kinases in BCWM.1 cells [9]) [%]	% change of MS signal compared to control sample (kinases in BCWM.1 cells [10]) [%]	% change of MS signal compared to control sample (kinases in BCWM.1 cells [11]) [%]	% change of MS signal compared to control sample (kinases in BCWM.1 cells [12]) [%]	% change of MS signal compared to control sample (kinases in BCWM.1 cells [13]) [%]	% change of MS signal compared to control sample (kinases in BCWM.1 cells [14]) [%]	% change of MS signal compared to control sample (kinases in BCWM.1 cells [15]) [%]	% change of MS signal compared to control sample (kinases in BCWM.1 cells [16]) [%]	% change of MS signal compared to control sample (kinases in BCWM.1 cells [17]) [%]	% change of MS signal compared to control sample (kinases in BCWM.1 cells [18]) [%]	% change of MS signal compared to control sample (kinases in BCWM.1 cells [19]) [%]	% change of MS signal compared to control sample (kinases in BCWM.1 cells [20]) [%]	other results
C=CC(=O)N1CC[C@H](Nc2nccc(Nc3ncc(C(=O)Nc4c(C)cccc4C)s3)n2)C1 [Example I-3]	5.1	−10.1	−15.6	−6.1	−3.4	2.1	1	−18.8	0.2	−3	11.6	8.2	13	−7.8	13.8	2.4	−1.8	−31.2	0.9	7.4	% change of MS signal compared to control sample (kinases in BCWM.1 cells [21]): −8.4%; % change of MS signal compared to control sample (kinases in BCWM.1 cells [22]): 5.7%; % change of MS signal compared to control sample (kinases in BCWM.1 cells [23]): −36.7%; % change of MS signal compared to control sample (kinases in BCWM.1 cells [24]): −1.2%; % change of MS signal compared to control sample (kinases in BCWM.1 cells [25]): 10.1%; % change of MS signal compared to control sample (kinases in BCWM.1 cells [26]): 2.3%; % change of MS signal compared to control sample (kinases in BCWM.1 cells [27]; RSK1 domain1): 9%; % change of MS signal compared to control sample (kinases in BCWM.1 cells [27]; RSK1 domain2): −1.9%; % change of MS signal compared to control sample (kinases in BCWM.1 cells [28]): −17%
CCC(=O)N1CC[C@H](Nc2nccc(Nc3ncc(C(=O)Nc4c(C)cccc4C)s3)n2)C1 [Example I-9]	−14.1	−17.7	23.4	20.2	−19.7	−2	5.1	9.9	2.1	−13.3	−5.6	−16.4	−6	−4	2.7	−23.4	28.5	12.5	−3.9	−3.7	% change of MS signal compared to control sample (kinases in BCWM.1 cells [21]): −6.4%; % change of MS signal compared to control sample (kinases in BCWM.1 cells [22]): 11.3%; % change of MS signal compared to control sample (kinases in BCWM.1 cells [23]): 24.3%; % change of MS signal compared to control sample (kinases in BCWM.1 cells [24]): −6.5%; % change of MS signal compared to control sample (kinases in BCWM.1 cells [25]): −13.1%; % change of MS signal compared to control sample (kinases in BCWM.1 cells [26]): −1.4%; % change of MS signal compared to control sample (kinases in BCWM.1 cells [27]; RSK1 domain1): −2%; % change of MS signal compared to control sample (kinases in BCWM.1 cells [27]; RSK1 domain2): −9.7%; % change of MS signal compared to control sample (kinases in BCWM.1 cells [28]): 13.5%
